Reference: patent US6265423A, “Aromatic polycyclic retinoid-type derivatives, method for preparing same, and use thereof for making pharmaceutical and cosmetic compositions” (priority 1996, dated 2001)
Entries after “also recorded” stand apart in the source; their conditions may differ.

What was measured:
[1] = tested on: AP-1, MTLN lineage (MCF-7); assay: Anti-AP-1 effect, MTLN lineage activated by TPA; format: cell-based, human
Protocol: (§1) Certain properties of the retinoids have been determined using more developed cellular models. These models consist of cellular lineages transfected in a stable fashion by recombinant plasmids which place the expression of the gene of the luciferase under the control of different nuclear response elements. […] The tests carried out in duplicate are described below for each of these models.
The anti-factor AP-1 transrepressor effect of retinoids is determined using the MTLN lineage, coming from MCF-7 cells transfected in a stable fashion by a vector p(TRE)3 -tk-Luc which places the expression of the gene of luciferase under the control of […]. TPA activates the AP-1 complex formed from proteins of the family of nuclear proto-oncogenes (c-Jun and c-Fos). […] The experiments are made with the MTLN cells activated by 10^-7 M TPA.
The effect of the compounds on the MTLN cells activated by 10^-7 M TPA is expressed as a percentage. […] The inhibitive properties of the products are calculated after deduction of the base activity of the cells. The percentages reported correspond to a range of inhibitions determined from several experiments.

[2] = tested on: ERE-βGlob-Luc, MELN lineage (MCF-7); assay: Anti-oestrogenic effect, MELN lineage activated by estradiol; format: cell-based, human; conditions: for inhibition at 0.01 µM / inhibition / inhibition at 0.1 µM: Homo sapiens, MCF7, cells activated by 10^-9 M estradiol; for inhibition at 0.01 µM: 10^-8 M; for inhibition at 0.01 µM / inhibition at 0.1 µM: read-out: anti-oestrogenic effect, inhibition; for inhibition: 10^-6 M; for inhibition at 0.1 µM: 10^-7 M
Text: as §1
MCF-7 cells express RARα,γ and RXRα. The transfection of MCF-7 cells by an oestrogen-dependent gene (ERE-βGlob-Luc) has permitted the establishment of the MELN cellular lineage, used to determine the anti-oestrogenic activity of the retinoids. These cells contain the gene of the luciferase under the transcriptional control of the promoter of the βGlobine and of the response element ERE isolated from the gene of chicken vitelogenine A2. The experiments are carried out with MELN cells activated by 10^-9 M estradiol. The level of base activity of the MELN cells is obtained with the anti-oestrogen 1 μM 4-OH-tamoxifen (hydroxytamoxifen).
The effect of the products tested on the cells activated by 10^-9 M estradiol is expressed as a percentage, the level of base activity being deducted.

RARβ-ERcassette = assay: Transactivation, chimerical receptor RARβ-ERcassette (HeLa); format: cell-based; conditions: 10^-6 M; TTNPB 10^-8 M = 100
Text: (§2) The HeLa cells are co-transfected by a plasmid which codes for a retinoic receptor in which the C domain of bonding to the DNA is substituted by that of the receptor to RE oestrogens, and a plasmid which places the expression of the luciferase under the control of an ERE (Element of Response to Oestrogens). The expressed chimerical receptors are designated as RARα-ERcassette, RARβ-ERcassette, RARγ-ERcassette and RXRα-ERcassette. The A, B, D, E and F regions of the natural receptor are preserved as well as the transcriptional co-operation between the activation domains AF-1 and AF-2. These transitory transfection experiments follow the method of co-precipitation to calcium phosphate. The HeLa cells are co-transfected by […] of plasmid coding for the chimerical receptor, […] of reporter plasmid and […] of expression vector CMV-β-galactosidase used as an internal control of transfection. 24 hours after the transfection, the cells are incubated for 16 hours with the different effectors.
(§3) In this type of chimerical receptor, the C domain of bonding to the DNA of RAR is substituted by that of the receptor to the RE oestrogens. The protein obtained is close to the natural RAR receptor and preserves the transcriptional properties of the AF-1 and AF-2 domains. It modulates the transcription by means of an ERE. This RAR-ERcassette model allows one to observe a transcriptional response to a more physiological ligand.

[3] = tested on: response element RARE of RARβ gene, endogenic retinoic receptors, HRLN lineage; assay: HRLN transactivation (RARE-luciferase, stably transfected HeLa); format: cell-based; conditions: Homo sapiens, HeLa; for EC50: concentrations from 1 nM to 1 μM; for Emax: read-out: HRLN transactivation, E max
Protocol: (§4) MCF-7 cells and HeLa are cultivated in DMFM with phenol red to which 5% foetal calf serum is added. The T47-D cells are cultivated in RPMI to which 10% foetal calf serum is added. The experimental tests are carried out in DMEM without phenol red to which foetal calf serum treated with dextran carbon is added at 3%. […] The experiments using the different retinoids are carried out sheltered from the light so as to avoid any isomerisation.
as §1
The cellular lineages HRLN and HRL+N allow one to study the activation of an RARE by endogenic receptors using ligands at physiological concentrations. These lineages derive from HeLa cells transfected in a stable fashion by a reporter gene which places the expression of the gene of the luciferase under the control of a nuclear response element RARE (RARE3 -tk-Luc). The HeLa cells express all the known receptors of the retinoic acid (RARα,β,γ and RXRα,β,γ) with a predominance of RARα and RXRα. The response element RARE used for the HRLN cells corresponds to the sequence of the natural gene of the RARβ receptor (GGTTCAnnnnnAGTTCA). The HRL+N cells comprise the sequence GAGTGAnnnnnCGGTGA.
This lineage comprises the response element RARE of the natural gene of the RARβ receptor which controls the expression of the gene of the luciferase.

[4] = tested on: human mammary tumoral lineage T-47D; assay: Clonogenic test (soft agar), growth of cellular colonies; format: cell-based; conditions: T-47D; for activity at 0.01 µM / activity at 0.001 µM / activity at 0.0001 µM: 504 h, 21 days, control = 100%, read-out: mean number of cellular colonies in relation to control; for activity at 0.001 µM: 10^-9 M; for activity at 0.0001 µM: 10^-10 M; for effect on growth of cellular colonies (in words): soft agar
Text: The human tumour stem cells are the clonogenic cells which are the origin of the neoplasic cells which constitute a given tumour. These tumour stem cells are responsible for the recidivism process observable after surgical resection of the primary tumours and are also responsible for the formation of metastases. […] At the level of a tumour or of a tumoral cellular lineage, these clonogenic stem cells distinguish themselves from other clonogenic cells of the tumour or of the neoplasic cellular lineage being considered, by the fact that they preserve their ability to proliferate in the absence of any solid support.
This technique is suitable for the culturing in vitro of most of the tumours and tumoral cellular lineages of various histological types. In the context of this test, the neoplastic cells are cultured on a semi-solid culture medium "soft agar" made up of a mixture of agar and agarose. On this selective support, only tumoral stem cells survive and proliferate. […] The morphological characteristics and the growth of the cellular colonies are also a function of the histological type of the tumours being considered.
These culture conditions are also called "anchorage-independent" conditions.
The base medium "MEM 25 MM HEPES" (Minimum Essential Medium, Life Technologies, Belgium) contains Eagle salts but no L-glutamine. This medium is well suited to the growth of a range of varied diploid cells or primary mammal cells. To this medium is then added:
The tumoral cells are maintained in culture in 25 cm^2 falcon dishes (Life Technologies, Belgium). They are then trypsinised and individualised. Their rate of viability is determined by coloration with trypan blue (Sigma, Belgium). It must be greater than 90%. In the case where this condition is kept to, a cellular suspension at the desired concentration is prepared in a solution of agar at 0. 3%. The cells are then seeded between two layers of agar (Sigma, Belgium) and in 35 mm Petri dishes (Life Technologies, Belgium). The base layer is made up of a 0.5% solution of agar and the top layer is made up of a 0.3% solution of agar. The cupules are then positioned and held in an incubator at 37° C. and 5% of CO2. […] After treatment, the cupules are kept in the incubator for 21 days. It is advisable to examine, during the course of the experiment, the appearance and the increase of the cellular colonies. If after 10 days, no colony appears or is developing, the experiment must be repeated. In the contrary case, on the 21st day, 100 μl of an MTT solution (3-(4,5-dimethylthiazol-2-yl)-2,5 diphenyl tetrazolium bromide; Sigma, Belgium) dissolved in the RPMI culture medium (Roswell park Memorial Institute, Life Technologies, Belgium), at the concentration of 1 mg/ml are deposited on the top layer of the group of cupules. The cells are kept in contact with this solution for a minimum of 3 hours at 37° C.
Using an inverted microscope at low magnification, the number of clones whose surface area is greater thar. 100 μm^2 is determined for the group of cupules representing all the different experimental conditions. Then, for each of these experimental conditions, the mean number of cellular colonies±the standard error on the mean (ESM) is calculated.
The mean number of cellular colonies determined for each experimental condition is expressed as a percentage in relation to the control condition made equal to 100%.

RARγ-ERcassette = assay: Transactivation, chimerical receptor RARγ-ERcassette (HeLa); format: cell-based; conditions: 10^-6 M; TTNPB 10^-8 M = 100
Text: as §2, §3

RARα-ERcassette = assay: Transactivation, chimerical receptor RARα-ERcassette (HeLa); format: cell-based; conditions: 10^-6 M; TTNPB 10^-8 M = 100
Text: as §2, §3

T-47D cells = assay: Effect on oestrogen-induced proliferation of T-47D cells; format: cell-based, human; conditions: Homo sapiens, T47D, 168 h; 1 μM (10^-6 M), 7 days, estradiol 10^-9 M; read-out: percentage inhibition of growth, T-47D
Protocol: as §4
So as to test the anti-proliferation effect of the retinoids, growth experiments under oestrogenic conditions were carried out on cells MCF-7 and T-47D. These are the human oestrogen-dependent mammary cancer cells which express the receptor to RE oestrogens. The effect of the molecules is evaluated after 7 days of culture in oestrogenic conditions (estradiol 10^-9 M) by dosing the cellular DNA. The cells are distributed in 24 well plates at a density of 2×10^4 cells per well. The tests with the different retinoids are carried out in triplicate and the culture medium is changed after 4 days of growth.

CC1(C)CCC(C)(C)c2cc(C(=O)Nc3ccc(C(=O)O)cc3)ccc21 [Am580, 4-[(5,6,7,8-tetrahydro-5,5,8,8-tetramethyl-2-naphthalenyl)carboxamido]benzoic acid, reference compound]
inhibition at 0.1 µM ([1]; Homo sapiens, MCF7, 10^-7 M, cells activated by 10^-7 M TPA, range of several experiments, read-out: anti-AP-1 effect, inhibition): 41 to 48% | inhibition at 0.01 µM ([1]; Homo sapiens, MCF7, 10^-8 M, cells activated by 10^-7 M TPA, range of several experiments, read-out: anti-AP-1 effect, inhibition): 40 to 46% | inhibition at 0.01 µM [2]: 36 to 51% | anti-oestrogenic effect, inhibition (of the order of) ([2]; MELN, estradiol 10^-9 M): ~40%

C/C(=C\c1ccc2c(c1)C(C)(C)CCC2(C)C)c1ccc(C(=O)O)nc1 [CB12273, (E) 5-[1-(5,6,7,8-tetrahydro-5,5,8,8-tetramethyl-2-naphthalenyl)-2-propenyl]pyridinyl-2-carboxylic acid]
RAR-ERcassette RARβ transactivation (RARβ-ERcassette): 123% | inhibition [2]: 21 to 41% | inhibition at 0.1 µM [2]: 7 to 16% | inhibition at 0.01 µM [2]: 0% | EC50 [3]: 21.4 ± 5.6 nM | Emax [3]: 106% | activity at 0.01 µM ([4]; Homo sapiens, T47D, 10^-8 M): 71.2 ± 2.9% | activity at 0.001 µM ([4]; Homo sapiens, T47D): 93.9 ± 3.3% | activity at 0.0001 µM ([4]; Homo sapiens, T47D): 92.9 ± 21.7% | inhibition at 0.01 µM ([4]; Homo sapiens, T47D, 10^-8 M, read-out: inhibition of colony growth): 28.8% | RAR-ERcassette RARγ transactivation (RARγ-ERcassette): 106% | RAR-ERcassette RARα transactivation (RARα-ERcassette): 90%

C/C(=C\c1ccc2c(c1)C(C)(C)CCC2(C)C)c1ccc(C(=O)O)s1 [CB38973]
inhibition [2]: 30% | EC50 [3]: 14.9 ± 12.3 nM | Emax [3]: 89% | activity at 0.01 µM ([4]; Homo sapiens, T47D, 10^-8 M): 38.6 ± 3.6% | activity at 0.001 µM ([4]; Homo sapiens, T47D): 60.1 ± 2% | activity at 0.0001 µM ([4]; Homo sapiens, T47D): 68.4 ± 8.3% | effect on growth of cellular colonies (in words) [4]: inhibit the growth of the cellular colonies; also recorded: significantly inhibit the growth of the colonies | inhibition at 1 µM (T-47D cells): 55%

C/C(=C\c1ccc2c(c1)C(C)(C)CCC2(C)C)c1cc(C(=O)O)no1 [CB57201]
RAR-ERcassette RARβ transactivation (RARβ-ERcassette): 132% | inhibition [2]: 23 to 41% | inhibition at 0.1 µM [2]: 1 to 9% | inhibition at 0.01 µM [2]: 0% | EC50 [3]: 55.8 ± 70.1 nM | Emax [3]: 70% | activity at 0.01 µM ([4]; Homo sapiens, T47D, 10^-8 M): 64.8 ± 1.2% | activity at 0.001 µM ([4]; Homo sapiens, T47D): 58.9 ± 11% | activity at 0.0001 µM ([4]; Homo sapiens, T47D): 75.2 ± 12.2% | effect on growth of cellular colonies (in words) [4]: inhibit the growth of the cellular colonies; also recorded: significantly inhibit the growth of the colonies | RAR-ERcassette RARγ transactivation (RARγ-ERcassette): 84% | RAR-ERcassette RARα transactivation (RARα-ERcassette): 73%

C/C(=C/c1ccc2c(c1)C(C)(C)CCC2(C)C)c1cc(C(=O)O)no1 [CB73069]
inhibition [2]: 17 to 21%

C/C(=C\c1ccc2c(c1)C(C)(C)CCC2(C)C)c1cc(C(=O)O)cs1 [CB80660]
inhibition [2]: 18 to 37% | inhibition at 0.1 µM [2]: 20 to 42% | inhibition at 0.01 µM [2]: 26% | EC50 [3]: 38.3 ± 9.5 nM | Emax [3]: 106%

CCCCCCCOc1cc2c(cc1/C(C)=C/c1ccc(C(=O)O)cc1)C(C)(C)CCS2(=O)=O [Ro 41-5253, reference compound]
anti-AP-1 effect (in words) ([1]; TPA-activated MTLN cells): does not allow the inhibition induced by TTNPB to be totally lifted | anti-oestrogenic effect (in words) ([2]; estradiol-activated MELN cells): raises the inhibitor effect of Am580 and also of TTNPB
